Test results taken from US11691989B2, “Macrocyclic indoles as Mcl-1 inhibitors” (ASCENTAGE PHARMA (SUZHOU) CO., LTD., priority 2018, dated 2023).
pIC50: −log10 of the molar value.

How the values were obtained:
[1] = molecular target: Mcl-1 protein (residues 171-323) (Homo sapiens (Human), UniProt Q07820); assay: Inhibition of Mcl-1 by fluorescence polarization (FP) competitive binding assay with FAM-Bid tracer; conditions: 2 nM FAM-Bid, 20 nM Mcl-1, 30 min, read-out: Mc1-1 (FP)
Experimental: Inhibition of Mcl-1 by fluorescence polarization (FP) assay.
The method used a fluorescein labelled peptide (FAM-Bid) which binds to the Mcl-1 protein leading to an increased anisotropy measured in milli-polarization (mP) values using a plate reader.
A 10-points serial dilution of each compound was prepared in DMSO and 5 μL solution was transferred into flat bottomed, 96-well back plate (final DMSO concentration 5%). 120 μL of Buffer (PBS, 0.01% BGG (Sigma Cat. #SRE0011), 0.01% Triton X-100), containing the Fluorescein labelled peptide (Final concentration 2 nM) and Mcl-1 protein (final concentration 20 nM) was then added. […] 10-points dose response curves were plotted with GraphPad software using Sigmoidal Dose-Response Model and the IC50 values were determined by nonlinear regression fitting of the competition curves.

[2] = system: OPM-2 cells; assay: Cell viability assay (OPM-2 cells), CCK-8; format: cell-based; conditions: 5% FBS
Experimental: Cell Viability Assay (OPM-2 cells)
OPM-2 cells were obtained from Deutsche Sammlung von Mikroorganismen and Zellkulturen GmbH (DSMZ). Cells were maintained in the recommended culture medium with 10% FBS at 37° C. and an atmosphere of 5% CO2.
The effect of representative Compounds of the Disclosure on cell viability was determined using Cell Counting Kit-8 (CCK-8) assay (Shanghai Life iLab Bio Technology) according to the manufacturer's instructions. Each tested compound was serially diluted in culture medium, 100 μL of the compound dilution was added into 96-well plates. 100 μL of an OPM-2 cell suspension (20000 cells/well) in culture medium were seeded into the corresponding well of the plate and the cells were incubated at 37° C. in an atmosphere of 5% CO2 for 24 hours. In the next day, 20 μL of CCK-8 solution was added to each well of the plate and incubated for 4 hours.
The plates were read at 450 nm on the microplate spectrophotometer (SpectraMax plus 384, Molecular devices). The readings were normalized to the vehicle cells, and the IC50 was calculated by nonlinear regression analysis using GraphPad Prism 6 software.

[3] = system: NCI-H929 cells; assay: Cell viability assay (NCI-H929 cells), CCK-8; format: cell-based; conditions: 5% FBS
Experimental: Cell Viability Assay (NCI-H929 cells)
NCI-H929 cells were obtained from American Type Culture Collection (ATCC). Cells were maintained in the recommended culture medium (RPMI 1640) with 10% FBS and 0.05 mM BME at 37° C. and an atmosphere of 5% CO2.
The effect of Compounds on cell viability was determined using Cell Counting Kit-8 (CCK-8) assay according to the manufacturer's instructions. 95 μL of NCI-H929 cell suspension (20000 cells/well) in culture medium were seeded into 96-well plates and cultured 4 hrs. Each tested compound was serially diluted in DMSO, then 5 μL of the compound or DMSO was diluted in 95 μL medium once more. At last, 5 μL of the compound dilution was added to the corresponding well of the cell plate. After the addition of the tested compound, the cells were incubated at 37° C. in an atmosphere of 5% CO2 for 24 hrs. At the end, 10 μL of CCK-8 solution was added to each well of the plate and incubated for 1-4 hours. The plates were read at 450 nm on the microplate reader (BioTek Synergy 1MF). The readings were normalized to the vehicle cells, and the IC50 was calculated by nonlinear regression analysis using GraphPad Prism 6 software.

[4] = Microsome clearance assay, mouse; format: in vitro ADME; conditions: 0.5 mg/ml protein, 1 mM NADPH, 60 minutes; for Mouse Liver Microsome Clint (μL/min/mg protein): mouse liver microsomes, 5 μM; for microsomal CLint at 5 μM: male, CD-1, mouse, pooled liver microsomes, pH 7.4, mouse liver microsomes, read-out: Mouse Liver Microsome Clint (μL/min/mg protein)
Experimental: (§1) Representative Compounds of the Disclosure were tested in a microsome clearance assay. Pooled liver microsomes (20 mg/ml) from human, male Wister rat, and male CD-1 mouse were obtained from BD Bioscience (Franklin Lakes, N.J. USA). Incubation reaction mixtures contained a final concentration of 0.1M sodium phosphate buffer (pH 7.4), 0.5 mg/ml microsomal protein, 5 μM of test sample and 1 mM NADPH in a total volume of 400 μl. The incubations were done for 60 minutes and 300 μl of the mixtures was transferred to 150 μl of ice cold methanol to terminate reactions. After vortexes for 3 minutes and centrifuged at 4000 rpm at 4° C. for 10 minutes, the clear supernatant was used directly for analysis. The samples were analyzed by Applied Biosystems API 3200 Q TRAP LC/MS/MS system using electrospray ionization mode.

[5] = Microsome clearance assay, rat; format: in vitro ADME; conditions: 0.5 mg/ml protein, 1 mM NADPH, 60 minutes; for Rat Liver Microsome Clint (μL/min/mg protein): rat liver microsomes, 5 μM; for microsomal CLint at 5 μM: male, Wister, rat, pooled liver microsomes, pH 7.4, rat liver microsomes, read-out: Rat Liver Microsome Clint (μL/min/mg protein)
Experimental: as §1

[6] = Microsome clearance assay, human; format: in vitro ADME; conditions: 0.5 mg/ml protein, 1 mM NADPH, 60 minutes; for Human Liver Microsome Clint (μL/min/mg protein): human liver microsomes, 5 μM; for microsomal CLint at 5 μM: human, pooled liver microsomes, pH 7.4, human liver microsomes, read-out: Human Liver Microsome Clint (μL/min/mg protein)
Experimental: as §1

Sequence of Mcl-1 protein (residues 171-323) (Q07820 171-323): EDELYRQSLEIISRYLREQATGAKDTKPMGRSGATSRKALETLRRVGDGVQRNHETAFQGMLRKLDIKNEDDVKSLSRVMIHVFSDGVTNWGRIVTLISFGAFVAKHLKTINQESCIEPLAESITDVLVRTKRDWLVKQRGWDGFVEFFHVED

SMILES	pIC50 [1]	pIC50 ([2]; 24 hours)	pIC50 ([3]; 24 hrs)	Mouse Liver Microsome Clint (μL/min/mg protein) [4]	Rat Liver Microsome Clint (μL/min/mg protein) [5]	Human Liver Microsome Clint (μL/min/mg protein) [6]	pIC50 ([2]; Homo sapiens, OPM-2, 24 h)	pIC50 ([3]; Homo sapiens, NCI-H929, 24 h)	microsomal CLint at 5 μM [4]	microsomal CLint at 5 μM [5]	microsomal CLint at 5 μM [6]
Cc1c(C(=O)O)n2c3ccc(Cl)c(c13)-c1c(nn(C)c1C)CSCc1cc(n(C)n1)CSc1cc(c3ccc(F)cc3c1)OCCC2 (atropisomer, axis not shown) [Cpd. No. 16, (S)-(Z)-1^5-chloro-9^6-fluoro-1^3,2^1,2^5,6^1-tetramethyl-1^111,2^1H,6^1H-10-oxa-4,8-dithia-1(4,1)-indola-2(4,3),6(3,5)-dipyrazola-9(3,1)-naphthalenacyclotridecaphane-1^2-carboxylic acid]	5.49	5.39	5.65	135 μL/min/mg protein	64.6 μL/min/mg protein	23.4 μL/min/mg protein					
Cc1c(C(=O)O)n2c3ccc(Cl)c(c13)-c1c(nn(C)c1C)CN(S(C)(=O)=O)Cc1cc(n(C)n1)CSc1cc(c3ccc(F)cc3c1)OCCC2 (atropisomer, axis not shown) [Cpd. No. 33, (R)-(Z)-1^5-chloro-9^6-fluoro-1^3,2^1,2^5, 6^1-tetramethyl-4-(methylsulfonyl)-1^1H,2^1H, 6′H-10-oxa-8-thia-4-aza-1(4,1)-indola-2(4,3),6(3,5)-dipyrazola-9(3,1)-naphthalenacyclotridecaphane-1^2-carboxylic acid]	8.30	6.72	6.97	16.0 μL/min/mg protein	8.6 μL/min/mg protein	<2.8 μL/min/mg protein					
Cc1c(C(=O)O)n2c3ccc(Cl)c(c13)-c1c(nn3c1COCC3)CSCc1cc(n(C)n1)CSc1cc(c3ccccc3c1)OCCC2 [Cpd. No. 1, (Z)-1^5-chloro-1^3,6^1-dimethyl-2^6,2^7-dihydro-1^1H,2^4H,6^1H-10-oxa-4,8-dithia-2(3,2)-pyrazolo[5,1-c][1,4]oxazina-1(4,1)-indola-6(3,5)-pyrazola-9(3,1)-naphthalenacyclotridecaphane-1^2-carboxylic acid]	8.15						5.81	6.78	49 µL/min/mg	34.4 µL/min/mg	35.2 µL/min/mg
CCc1c(C(=O)O)n2c3ccc(Cl)c(c13)-c1c(nn(C)c1C)CSCc1cc(n(C)n1)CSc1cc(c3ccccc3c1)OCCC2 [Cpd. No. 8, (Z)-1^5-chloro-1^3-ethyl-2^1,2^5,6^1-trimethyl-1^1H,2^1H,6^111-10-oxa-4,8-dithia-1(4,1)-indola-2(4,3),6(3,5)-dipyrazola-9(3,1)-naphthalenacyclotridecaphane-1^2-carboxylic acid]	7.68						6.57	7.15	325 µL/min/mg	299 µL/min/mg	86.8 µL/min/mg
CC(=O)NCc1c(C(=O)O)n2c3ccc(Cl)c(c13)-c1c(nn(C)c1C)CSCc1cc(n(C)n1)CSc1cc(c3ccccc3c1)OCCC2 [Cpd. No. 12, (Z)-1^3-(acetamidomethyl)-1^5-chloro-2^1,2^5,6^1-trimethyl-1^1H,2^1H,6^1E-10-oxa-4,8-dithia-1(4,1)-indola-2(4,3),6(3,5)-dipyrazola-9(3,1)-naphthalenacyclotridecaphane-1^2-carboxylic acid]	7.74						5.01	6.56	13.8 µL/min/mg	30.6 µL/min/mg	3.6 µL/min/mg
Cc1c(C(=O)O)n2c3ccc(Cl)c(c13)-c1c(nn(C)c1C)CSCc1cc(n(C(C)C)n1)CSc1cc(c3ccc(F)cc3c1)OCCC2 [Cpd. No. 17, (Z)-1^5-chloro-9^6-fluoro-6^1-isopropyl-1^3,2^1,2^5-trimethyl-1^1H,2^1H,6^1H-10-oxa-4,8-dithia-1(4,1)-indola-2(4,3),6(3,5)-dipyrazola-9(3,1)-naphthalenacyclotridecaphane-1^2-carboxylic acid]							7.03	7.11	29.2 µL/min/mg	46.6 µL/min/mg	19.4 µL/min/mg
Cc1ccc2c3c(C)c(C(=O)O)n2CCCOc2cc(cc4cc(F)ccc24)SCc2cc(nn2C)CSCc2nn(C)c(C)c2-c13 [Cpd. No. 22, (Z)-9^6-fluoro-1^3, 1^5,2^1,2^5,6^1-pentamethyl-1^1H,2^1H,6^1H-10-oxa-4,8-dithia-1(4,1)-indola-2(4,3), 6(3,5)-dipyrazola-9(3,1)-naphthalenacyclotridecaphane-1^2-carboxylic acid]	7.82						7.14	7.21	32 µL/min/mg	30.8 µL/min/mg	11.8 µL/min/mg
Cc1c2c(nn1C)CSCc1cc(n(C)n1)CSc1cc(c3ccc(F)cc3c1)OCCCn1c(C(=O)O)c(CN(C)S(=O)(=O)C(F)(F)F)c3c-2c(Cl)ccc31 [Cpd. No. 23, (Z)-1^5-chloro-9^6-fluoro-2^1,2^5,6^1-trimethyl-1^3-(((1,1,1-trifluoro-N-methylmethyl)sulfonamido)methyl)-1^1H,2^1H,6^1H-10-oxa-4,8-dithia-1(4,1)-indola-2(4,3),6(3,5)-dipyrazola-9(3,1)-naphthalenacyclotridecaphane-1^2-carboxylic acid]	7.80						5.73	5.97	52.4 µL/min/mg	30.4 µL/min/mg	48.2 µL/min/mg
Cc1c2c(nn1C)CSCc1cc(n(C)n1)CSc1cc(c3ccc(F)cc3c1)OCCCn1c(C(=O)O)c(C(F)(F)F)c3c-2c(Cl)ccc31 [Cpd. No. 24, (Z)-1^5-chloro-9^6-fluoro-2^1,2^5,6^1-trimethyl-1^3-(trifluoromethyl)-1^1H,2^1H,6^1H-10-oxa-4,8-dithia-1(4,1)-indola-2(4,3),6(3,5)-dipyrazola-9(3,1)-naphthalenacyclotridecaphane-1^2-carboxylic acid]	7.82						5.27	5.52	28.8 µL/min/mg	122 µL/min/mg	21.8 µL/min/mg
Cc1nn(C)c2c1-c1c(Cl)ccc3c1c(C)c(C(=O)O)n3CCCOc1cc(cc3cc(F)ccc13)SCc1cc(nn1C)CSC2 [Cpd. No. 28, (Z)-1^5-chloro-9^6-fluoro-1^3,2^1,2^3,6^1-tetramethyl-1^1H,2^1H,6^111-10-oxa-4,8-dithia-1(4,1)-indola-2(4,5),6(3,5)-dipyrazola-9(3,1)-naphthalenacyclotridecaphane-1^2-carboxylic acid]	7.85						7.18	7.33	116 µL/min/mg	38.4 µL/min/mg	42.8 µL/min/mg
